The NIST ThermoML archive (doi:10.1016/j.jct.2006.05.008)
Numbers after ± are expanded uncertainties.

Test: molar heat capacity at constant pressure; wn = mass fraction of the nth substance listed
Settings: Small (less than 1 g) adiabatic calorimetry

CCCCn1cc[n+](C)c1.[Br-] [1-butyl-3-methylimidazolium bromide] + O
Settings	molar heat capacity at constant pressure [J/K/mol]
152.96 K, 101.3 kPa, Glass, w2 = 0.00482	151.04 ± 0.8
155.53 K, 101.3 kPa, Glass, w2 = 0.00482	152.59 ± 0.81
158.09 K, 101.3 kPa, Glass, w2 = 0.00482	154.17 ± 0.82
160.66 K, 101.3 kPa, Glass, w2 = 0.00482	155.77 ± 0.82
163.24 K, 101.3 kPa, Glass, w2 = 0.00482	157.38 ± 0.83
165.81 K, 101.3 kPa, Glass, w2 = 0.00482	158.96 ± 0.84
168.39 K, 101.3 kPa, Glass, w2 = 0.00482	160.57 ± 0.84
170.97 K, 101.3 kPa, Glass, w2 = 0.00482	162.11 ± 0.85
173.55 K, 101.3 kPa, Glass, w2 = 0.00482	163.78 ± 0.85
176.13 K, 101.3 kPa, Glass, w2 = 0.00482	165.35 ± 0.86
178.71 K, 101.3 kPa, Glass, w2 = 0.00482	167.03 ± 0.87
181.3 K, 101.3 kPa, Glass, w2 = 0.00482	168.7 ± 0.88
183.89 K, 101.3 kPa, Glass, w2 = 0.00482	170.41 ± 0.88
186.48 K, 101.3 kPa, Glass, w2 = 0.00482	172.04 ± 0.89
189.06 K, 101.3 kPa, Glass, w2 = 0.00482	173.78 ± 0.9
191.65 K, 101.3 kPa, Glass, w2 = 0.00482	175.6 ± 0.9
194.25 K, 101.3 kPa, Glass, w2 = 0.00482	177.44 ± 0.91
196.84 K, 101.3 kPa, Glass, w2 = 0.00482	179.31 ± 0.92
199.44 K, 101.3 kPa, Glass, w2 = 0.00482	181.34 ± 0.93
201.78 K, 101.3 kPa, Glass, w2 = 0.00482	183.39 ± 0.93
203.87 K, 101.3 kPa, Glass, w2 = 0.00482	185.23 ± 0.94
205.95 K, 101.3 kPa, Glass, w2 = 0.00482	187.63 ± 0.95
208.05 K, 101.3 kPa, Glass, w2 = 0.00482	190.57 ± 0.96
209.63 K, 101 kPa, Liquid, w2 = 0.0495	190.63 ± 0.96
210.13 K, 101.3 kPa, Glass, w2 = 0.00482	194.11 ± 0.98
211.86 K, 101 kPa, Liquid, w2 = 0.0495	190.98 ± 0.96
212.18 K, 101.3 kPa, Glass, w2 = 0.00482	199.24 ± 1
213.95 K, 101 kPa, Liquid, w2 = 0.0495	191.32 ± 0.96
214.19 K, 101.3 kPa, Glass, w2 = 0.00482	209.18 ± 1
216.04 K, 101 kPa, Liquid, w2 = 0.0495	191.7 ± 0.97
216.1 K, 101.3 kPa, Glass, w2 = 0.00482	229.46 ± 1.1
218.13 K, 101 kPa, Liquid, w2 = 0.0495	191.97 ± 0.97

Crystal
Settings	molar heat capacity at constant pressure [J/K/mol]
153.47 K, w2 = 0.00482	140.32 ± 0.76
154 K, w2 = 0.0495	102.07 ± 0.61
154.55 K, w2 = 0.0169	127.32 ± 0.71
154.86 K, w2 = 0.0051	140.76 ± 0.76
156.05 K, w2 = 0.00482	141.71 ± 0.77
156.62 K, w2 = 0.0169	128.46 ± 0.71
156.86 K, w2 = 0.0495	103.54 ± 0.61
157.46 K, w2 = 0.0051	142.19 ± 0.77
158.64 K, w2 = 0.00482	143.05 ± 0.77
158.69 K, w2 = 0.0169	129.54 ± 0.72
159.72 K, w2 = 0.0495	105.03 ± 0.62
160.06 K, w2 = 0.0051	143.6 ± 0.78
160.76 K, w2 = 0.0169	130.58 ± 0.72
161.22 K, w2 = 0.00482	144.52 ± 0.78
162.58 K, w2 = 0.0495	107.12 ± 0.63
162.67 K, w2 = 0.0051	145.04 ± 0.78
162.83 K, w2 = 0.0169	131.81 ± 0.73
163.81 K, w2 = 0.00482	145.98 ± 0.78
164.91 K, w2 = 0.0169	133.35 ± 0.73
165.35 K, w2 = 0.0051	146.89 ± 0.79
165.42 K, w2 = 0.0495	110.43 ± 0.64
166.4 K, w2 = 0.00482	147.42 ± 0.79
166.98 K, w2 = 0.0169	135.28 ± 0.74
167.95 K, w2 = 0.0051	148.6 ± 0.79
168.2 K, w2 = 0.0495	119.37 ± 0.68
168.99 K, w2 = 0.00482	148.99 ± 0.8
169.05 K, w2 = 0.0169	138.58 ± 0.76
170.54 K, w2 = 0.0051	150.98 ± 0.8
170.84 K, w2 = 0.0495	133.87 ± 0.74
171.1 K, w2 = 0.0169	143.34 ± 0.77
171.58 K, w2 = 0.00482	150.69 ± 0.8
173.12 K, w2 = 0.0051	153.72 ± 0.81
173.15 K, w2 = 0.0169	146.3 ± 0.79
173.43 K, w2 = 0.0495	137.89 ± 0.75
174.17 K, w2 = 0.00482	152.56 ± 0.81
175.22 K, w2 = 0.0169	148.17 ± 0.79
175.7 K, w2 = 0.0051	155.58 ± 0.82
176.02 K, w2 = 0.0495	137.25 ± 0.75
176.76 K, w2 = 0.00482	154.52 ± 0.82
177.3 K, w2 = 0.0169	149.6 ± 0.8
178.27 K, w2 = 0.0051	157.05 ± 0.83
178.63 K, w2 = 0.0495	136.83 ± 0.75
179.35 K, w2 = 0.00482	156.32 ± 0.83
179.39 K, w2 = 0.0169	150.75 ± 0.8
180.85 K, w2 = 0.0051	158.5 ± 0.83
181.26 K, w2 = 0.0495	136.85 ± 0.75
181.47 K, w2 = 0.0169	151.73 ± 0.81
181.94 K, w2 = 0.00482	158.09 ± 0.83
182.13 K, w2 = 0.0495	137.03 ± 0.75
183.43 K, w2 = 0.0051	159.93 ± 0.84
183.55 K, w2 = 0.0169	152.69 ± 0.81
183.89 K, w2 = 0.0495	137.25 ± 0.75
184.55 K, w2 = 0.00482	159.97 ± 0.84
184.8 K, w2 = 0.0495	137.33 ± 0.75
185.63 K, w2 = 0.0169	153.62 ± 0.81
186 K, w2 = 0.0051	161.23 ± 0.85
186.52 K, w2 = 0.0495	137.88 ± 0.75
187.15 K, w2 = 0.00482	161.48 ± 0.85
187.43 K, w2 = 0.0495	137.82 ± 0.75
187.72 K, w2 = 0.0169	154.64 ± 0.82
188.57 K, w2 = 0.0051	162.67 ± 0.85
189.16 K, w2 = 0.0495	138.51 ± 0.75
189.75 K, w2 = 0.00482	163.1 ± 0.85
189.81 K, w2 = 0.0169	155.65 ± 0.82
190.07 K, w2 = 0.0495	138.44 ± 0.75
191.13 K, w2 = 0.0051	164.05 ± 0.86
191.82 K, w2 = 0.0495	139.23 ± 0.76
191.89 K, w2 = 0.0169	156.63 ± 0.83
192.35 K, w2 = 0.00482	164.66 ± 0.86
192.72 K, w2 = 0.0495	139.22 ± 0.76
193.7 K, w2 = 0.0051	165.5 ± 0.86
193.98 K, w2 = 0.0169	157.56 ± 0.83
194.48 K, w2 = 0.0495	139.88 ± 0.76
194.95 K, w2 = 0.00482	166.1 ± 0.86
195.38 K, w2 = 0.0495	139.99 ± 0.76
196.08 K, w2 = 0.0169	158.61 ± 0.84
196.26 K, w2 = 0.0051	166.89 ± 0.87
197.16 K, w2 = 0.0495	140.43 ± 0.76
197.55 K, w2 = 0.00482	167.55 ± 0.87
198.05 K, w2 = 0.0495	140.75 ± 0.76
198.17 K, w2 = 0.0169	159.59 ± 0.84
198.82 K, w2 = 0.0051	168.3 ± 0.87
200.15 K, w2 = 0.00482	169 ± 0.88
200.26 K, w2 = 0.0169	160.53 ± 0.84
200.73 K, w2 = 0.0495	141.5 ± 0.76
201.38 K, w2 = 0.0051	169.66 ± 0.88
202.36 K, w2 = 0.0169	161.49 ± 0.85
202.75 K, w2 = 0.00482	170.67 ± 0.88
203.43 K, w2 = 0.0495	142.32 ± 0.78
203.93 K, w2 = 0.0051	171.24 ± 0.89
204.46 K, w2 = 0.0169	162.5 ± 0.85
205.36 K, w2 = 0.00482	172.16 ± 0.89
206.48 K, w2 = 0.0051	172.9 ± 0.89
206.55 K, w2 = 0.0169	163.54 ± 0.85
207.97 K, w2 = 0.00482	173.71 ± 0.89
208.05 K, w2 = 0.0495	144.92 ± 0.78
208.65 K, w2 = 0.0169	164.5 ± 0.86
209.03 K, w2 = 0.0051	175.02 ± 0.9
210.59 K, w2 = 0.00482	175.21 ± 0.9
210.75 K, w2 = 0.0495	151.13 ± 0.8
210.77 K, w2 = 0.0169	165.47 ± 0.86
211.56 K, w2 = 0.0051	176.7 ± 0.91
212.87 K, w2 = 0.0169	166.55 ± 0.87
213.21 K, w2 = 0.00482	176.73 ± 0.91
213.38 K, w2 = 0.0495	150.25 ± 0.8
214.1 K, w2 = 0.0051	177.3 ± 0.91
214.97 K, w2 = 0.0169	167.69 ± 0.87
215.83 K, w2 = 0.00482	178.25 ± 0.91
215.99 K, w2 = 0.0495	154.67 ± 0.82
216.64 K, w2 = 0.0051	178.89 ± 0.92
216.82 K, w2 = 0.00482	178.65 ± 0.91
217.07 K, w2 = 0.0169	169.05 ± 0.88
217.64 K, w2 = 0.0169	168.8 ± 0.88
